Data from US20070128217A1 (priority 2003, published 2007).

Legend:
[1] = tested on: antibodies in sera from SARS patients (sera 1a, 1b, 2, 6, 37, 62, London, SARS-yellow, SARS-green); assay type: binding, human; parameters: Binding of serum 6 to linear peptides of protein X1 of SARS-CoV Urbani / Binding of serum 37 to linear peptides of protein X1 of SARS-CoV Urbani / Binding of serum 6 to looped/cyclic peptide (PEPSCAN-ELISA) / Binding of serum 37 to looped/cyclic peptide (PEPSCAN-ELISA) / Binding of serum 37 to looped/cyclic peptides of protein X1 of SARS-CoV Urbani / Binding of serum 6 to linear peptides of protein X2 / Binding of serum 37 to linear peptides of protein X2 / Binding of serum 37 to looped/cyclic peptides of protein X2 of SARS-CoV Urbani / Binding of serum 6 to linear peptides of protein M of SARS-CoV Urbani / Binding of serum 37 to linear peptides of protein M of SARS-CoV Urbani / Binding of serum 6 to looped/cyclic peptides of protein M of SARS-CoV Urbani / Binding of serum 37 to looped/cyclic peptides of protein M of SARS-CoV Urbani / Binding of serum 6 to linear peptides of protein X3 of SARS-CoV Urbani / Binding of serum 37 to linear peptides of protein X3 of SARS-CoV Urbani / Binding of serum 37 to looped/cyclic peptides of protein X3 of SARS-CoV Urbani / Binding of serum 6 to linear peptides of protein X4 of SARS-CoV Urbani / Binding of serum 37 to linear peptides of protein X4 of SARS-CoV Urbani / Binding of serum 37 to looped/cyclic peptides of protein X4 of SARS-CoV Urbani / Binding of serum 6 to linear peptides of protein X5 of SARS-CoV Urbani / Binding of serum 37 to linear peptides of protein X5 of SARS-CoV Urbani / Binding of serum 37 to looped/cyclic peptides of protein X5 of SARS-CoV Urbani / Binding of serum 6 to linear peptides of protein N of SARS-CoV Urbani / Binding of serum 37 to linear peptides of protein N of SARS-CoV Urbani / Binding of serum 6 to linear peptide (PEPSCAN-ELISA) / Binding of serum 1a to looped/cyclic peptides of protein N of SARS-CoV Urbani / Binding of serum 1b to looped/cyclic peptides of protein N of SARS-CoV Urbani / Binding of serum 2 to looped/cyclic peptides of protein N of SARS-CoV Urbani / Binding of serum 6 to looped/cyclic peptides of protein N of SARS-CoV Urbani / Binding of serum 37 to looped/cyclic peptides of protein N of SARS-CoV Urbani / Binding of serum 62 to looped/cyclic peptides of protein N of SARS-CoV Urbani / Binding of serum London to looped/cyclic peptides of protein N of SARS-CoV Urbani / Binding of serum SARS-green to looped/cyclic peptides of protein N of SARS-CoV Urbani: unit not given here
[2] = tested on: rabbit serum obtained by immunizing a rabbit with the SARS-CoV strain Frankfurt 1; assay type: binding; parameters: Binding of a rabbit serum to linear peptides / Binding of a rabbit serum to looped peptides / Rabbit serum linear peptides / Rabbit serum looped peptides / Binding of a rabbit serum to linear peptides of protein N of SARS-CoV Urbani (Rabbit serum linear peptides) / Binding of a rabbit serum to looped/cyclic peptides of protein N of SARS-CoV Urbani (Rabbit serum looped peptides): unit not given here
[3] = tested on: control sera (pooled serum of ten healthy LUMC hospital workers; commercial negative donor pooled serum from the Dutch bloodbank); assay type: binding, human; parameters: Binding of Control serum LUMC to linear peptides / Binding of Control serum Blood-bank to linear peptides / Binding of Control serum LUMC to looped peptides / Binding of Control Serum Blood-Bank to Looped peptides / Binding of Control serum LUMC to linear peptides of the protein M of SARS-CoV Urbani / Binding of Control serum Blood-bank to linear peptides of the protein M of SARS-CoV Urbani / Binding of Control serum LUMC to looped peptides of the protein M of SARS-CoV Urbani / Binding of Control Serum Blood-Bank to Looped peptides of the protein M of SARS-CoV Urbani: unit not given here

Sequence: LNKRWQLALYKGFQF
- Binding of serum 1a to linear peptides of protein X1 of SARS-CoV Urbani [1]: 0.6
- Binding of serum 1a to looped/cyclic peptide (PEPSCAN-ELISA) [1]: 0.6
- Binding of serum 1b to linear peptides of protein X1 of SARS-CoV Urbani [1]: 0.7
- Binding of serum 1b to looped/cyclic peptide (PEPSCAN-ELISA) [1]: 0.4
- Binding of serum 2 to linear peptides of protein X1 of SARS-CoV Urbani [1]: 0.8
- Binding of serum 2 to looped/cyclic peptide (PEPSCAN-ELISA) [1]: 0.5
- Binding of serum 6 to linear peptides of protein X1 of SARS-CoV Urbani [1]: 0.8
- Binding of serum 6 to looped/cyclic peptide (PEPSCAN-ELISA) [1]: 0.5
- Binding of serum 37 to linear peptides of protein X1 of SARS-CoV Urbani [1]: 0.6
- Binding of serum 37 to looped/cyclic peptide (PEPSCAN-ELISA) [1]: 0.5
- Binding of serum 62 to linear peptides of protein X1 of SARS-CoV Urbani [1]: 0.6
- Binding of serum 62 to looped/cyclic peptide (PEPSCAN-ELISA) [1]: 0.6
- Binding of serum London to linear peptides of protein X1 of SARS-CoV Urbani [1]: 0.3
- Binding of serum London to looped/cyclic peptide (PEPSCAN-ELISA) [1]: 0.3
- Binding of serum SARS-green to linear peptides of protein X1 of SARS-CoV Urbani [1]: 0.3
- Binding of serum SARS-green to looped/cyclic peptide (PEPSCAN-ELISA) [1]: 0.1
- Binding of serum SARS-yellow to linear peptides of protein X1 of SARS-CoV Urbani [1]: 0.3
- Binding of serum SARS-yellow to looped/cyclic peptide (PEPSCAN-ELISA) [1]: 0.4
- Recognition of the peptide by the rabbit serum [2]: recognized
- Binding of Control Serum Blood-Bank to Looped peptides [3]: 0.6
- Binding of Control serum Blood-bank to linear peptides [3]: 0.8
- Binding of Control serum LUMC to linear peptides [3]: 0.6
- Binding of Control serum LUMC to looped peptides [3]: 0.6

Sequence: LNVPLRGTIVTRPLM
- Binding of serum 1a to linear peptides of protein M of SARS-CoV Urbani [1]: 0.7
- Binding of serum 1b to linear peptides of protein M of SARS-CoV Urbani [1]: 0.5
- Binding of serum 2 to linear peptides of protein M of SARS-CoV Urbani [1]: 0.6
- Binding of serum 6 to linear peptides of protein M of SARS-CoV Urbani [1]: 0.5
- Binding of serum 37 to linear peptides of protein M of SARS-CoV Urbani [1]: 0.5
- Binding of serum 62 to linear peptides of protein M of SARS-CoV Urbani [1]: 0.5
- Binding of serum London to linear peptides of protein M of SARS-CoV Urbani [1]: 0.4
- Binding of serum SARS-green to linear peptides of protein M of SARS-CoV Urbani [1]: 0.4
- Binding of serum SARS-yellow to linear peptides of protein M of SARS-CoV Urbani [1]: 0.1
- Recognition of the peptide by sera of SARS-CoV infected individuals, and form (linear, looped/cyclic) in which it is recognized [1]: recognized in looped/cyclic form
- Rabbit serum linear peptides [2]: 0.2
- Rabbit serum looped peptides [2]: 0.4
- Binding of Control Serum Blood-Bank to Looped peptides of the protein M of SARS-CoV Urbani [3]: 0.6
- Binding of Control serum Blood-bank to linear peptides of the protein M of SARS-CoV Urbani [3]: 0.7
- Binding of Control serum LUMC to linear peptides of the protein M of SARS-CoV Urbani [3]: 0.5
- Binding of Control serum LUMC to looped peptides of the protein M of SARS-CoV Urbani [3]: 0.7

Sequence: LPKEITVATSRTLSY
- Binding of serum 1a to linear peptides of protein M of SARS-CoV Urbani [1]: 0.7
- Binding of serum 1a to looped/cyclic peptides of protein M of SARS-CoV Urbani [1]: 0.6
- Binding of serum 1b to linear peptides of protein M of SARS-CoV Urbani [1]: 0.5
- Binding of serum 1b to looped/cyclic peptides of protein M of SARS-CoV Urbani [1]: 0.4
- Binding of serum 2 to linear peptides of protein M of SARS-CoV Urbani [1]: 0.6
- Binding of serum 2 to looped/cyclic peptides of protein M of SARS-CoV Urbani [1]: 0.6
- Binding of serum 6 to linear peptides of protein M of SARS-CoV Urbani [1]: 0.4
- Binding of serum 6 to looped/cyclic peptides of protein M of SARS-CoV Urbani [1]: 0.6
- Binding of serum 37 to linear peptides of protein M of SARS-CoV Urbani [1]: 0.4
- Binding of serum 37 to looped/cyclic peptides of protein M of SARS-CoV Urbani [1]: 0.6
- Binding of serum 62 to linear peptides of protein M of SARS-CoV Urbani [1]: 0.5
- Binding of serum 62 to looped/cyclic peptides of protein M of SARS-CoV Urbani [1]: 0.5
- Binding of serum London to linear peptides of protein M of SARS-CoV Urbani [1]: 0.3
- Binding of serum London to looped/cyclic peptides of protein M of SARS-CoV Urbani [1]: 0.2
- Binding of serum SARS-green to linear peptides of protein M of SARS-CoV Urbani [1]: 0.4
- Binding of serum SARS-green to looped/cyclic peptides of protein M of SARS-CoV Urbani [1]: 0.3
- Binding of serum SARS-yellow to linear peptides of protein M of SARS-CoV Urbani [1]: 0.2
- Binding of serum SARS-yellow to looped/cyclic peptides of protein M of SARS-CoV Urbani [1]: 0.5
- Rabbit serum linear peptides [2]: 0.2
- Rabbit serum looped peptides [2]: 0.2
- Binding of Control Serum Blood-Bank to Looped peptides of the protein M of SARS-CoV Urbani [3]: 0.6
- Binding of Control serum Blood-bank to linear peptides of the protein M of SARS-CoV Urbani [3]: 0.8
- Binding of Control serum LUMC to linear peptides of the protein M of SARS-CoV Urbani [3]: 0.7
- Binding of Control serum LUMC to looped peptides of the protein M of SARS-CoV Urbani [3]: 0.6
